Results reported in PMC13266999, “Designing Antibiotics with Inherent Resistance to Efflux as a Strategy to Revive Discovery against Multidrug-Resistant Pathogens” (Journal of Medicinal Chemistry, 2026).
≈ marks a conversion by molar mass, not a printed value. Where “and” joins values, the source holds several entries; their conditions need not be identical. Equal entries are not always repeated. Where two headings read alike, the source gives them in different places.

Legend:
[1] = test system: S. agalactiae; assay: MIC (microbroth dilution); type: cell-based, Streptococcus agalactiae; conditions: Streptococcus agalactiae
Experimental: All bacteria were maintained on tryptic soy agar (TSA), except Streptococcus spp., which were maintained on Columbia agar plates containing 5% horse blood. All bacterial assays were carried out in tryptic soy broth (TSB), except for Streptococcus spp. which were grown in cation-adjusted Mueller Hinton broth containing 2.5% lysed horse blood. Bacteria were grown to stationary phase in liquid culture overnight, with shaking at 200 rpm, before being back diluted to the relevant starting concentration for each assay below. MICs were measured by the microbroth dilution method. […] Absorbance at OD600 was read on a CLARIOstar spectrophotometer (BMG Labtech) and the MIC was defined as the minimum concentration of compound where no visible growth was detected. The compounds were prepared as a DMSO stock and equivalent concentrations of DMSO had no effect on bacterial growth. MICs were also performed in the presence of the outer membrane permeator, polymyxin b nonapeptide (PMBN) following the same MIC method but with the following variation. The 2-fold dilution series of compound was prepared as above, then 50 μL of PMBN at a final concentration of 30 μg/mL was added to relevant wells, while 50 μL/well of blank media was added to the remaining wells. Bacteria were then added at 50 μL/well for a starting concentration as above. Thirty μg/mL of PMBN had no effect on bacterial growth. The MICs were read and defined as above. All animal procedures were performed by the contract research organization Pharmacology Discovery Services Taiwan in accordance with the Guide for the Care and Use of Laboratory Animals. The procedures were approved by the Institutional Ethics Committee of Pharmacology Discovery Services Taiwan, Ltd. (approval no. AB127662), in compliance with animal welfare legislation in Taiwan.

[2] = biological target: T1, COX1(h) (Homo sapiens, UniProt P23219); assay: SafetyScreen44; type: biochemical; conditions: enzymatic activity, 1.0E-05 M
T1 construct: purchased Eurofins (SafetyScreen44)
T1 sequence (P23219 24-599): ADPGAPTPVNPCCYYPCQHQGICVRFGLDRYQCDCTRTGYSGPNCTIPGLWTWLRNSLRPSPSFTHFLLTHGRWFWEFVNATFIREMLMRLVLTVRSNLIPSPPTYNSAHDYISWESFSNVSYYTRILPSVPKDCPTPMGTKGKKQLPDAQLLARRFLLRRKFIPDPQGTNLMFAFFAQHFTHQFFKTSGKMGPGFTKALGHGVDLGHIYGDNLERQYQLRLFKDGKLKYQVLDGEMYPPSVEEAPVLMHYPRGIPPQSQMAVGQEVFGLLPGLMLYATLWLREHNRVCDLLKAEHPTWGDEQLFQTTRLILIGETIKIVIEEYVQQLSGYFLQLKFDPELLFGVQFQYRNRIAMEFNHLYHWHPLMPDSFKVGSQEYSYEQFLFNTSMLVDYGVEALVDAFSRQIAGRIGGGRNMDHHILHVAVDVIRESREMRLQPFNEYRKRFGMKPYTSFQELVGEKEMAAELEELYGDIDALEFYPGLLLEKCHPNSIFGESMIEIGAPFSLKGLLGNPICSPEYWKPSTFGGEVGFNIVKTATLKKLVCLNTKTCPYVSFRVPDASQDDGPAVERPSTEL
Experimental: (§1) Off-target pharmacology was evaluated using the Eurofins SafetyScreen44 in vitro panel. […] Binding assays were performed using radioligand displacement, and enzyme or uptake assays measured inhibition of control activity using validated detection methods (scintillation counting, fluorimetry or photometry). Responses were expressed as percent inhibition of control binding or activity. Based on Eurofins interpretation guidelines, effects ≥50% were considered significant, effects between 25% and 50% weak to moderate, and effects <25% were not considered biologically relevant.

[3] = biological target: T2, COX2(h) (Homo sapiens, UniProt P35354); assay: SafetyScreen44; type: biochemical; conditions: enzymatic activity, 1.0E-05 M
T2 construct: purchased Eurofins (SafetyScreen44)
T2 sequence (P35354 18-604): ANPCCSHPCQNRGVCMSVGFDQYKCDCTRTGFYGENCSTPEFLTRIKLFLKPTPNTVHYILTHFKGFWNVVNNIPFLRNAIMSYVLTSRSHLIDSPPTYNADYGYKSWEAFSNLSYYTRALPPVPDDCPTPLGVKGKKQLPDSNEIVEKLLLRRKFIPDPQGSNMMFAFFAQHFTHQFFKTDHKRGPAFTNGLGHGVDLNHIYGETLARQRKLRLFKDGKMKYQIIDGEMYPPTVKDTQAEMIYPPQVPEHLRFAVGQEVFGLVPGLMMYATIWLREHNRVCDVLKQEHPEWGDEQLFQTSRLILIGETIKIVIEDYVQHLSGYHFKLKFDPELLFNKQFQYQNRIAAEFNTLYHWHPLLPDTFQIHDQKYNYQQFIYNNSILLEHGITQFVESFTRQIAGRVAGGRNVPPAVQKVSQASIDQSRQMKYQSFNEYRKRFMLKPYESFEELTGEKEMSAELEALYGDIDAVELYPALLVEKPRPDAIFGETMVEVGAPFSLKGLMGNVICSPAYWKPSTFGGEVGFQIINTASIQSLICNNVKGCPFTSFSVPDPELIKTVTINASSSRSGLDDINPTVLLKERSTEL
Experimental: as §1

[4] = biological target: T3, Lck kinase (h) (Homo sapiens, UniProt P06239); assay: SafetyScreen44; type: biochemical; conditions: enzymatic activity, 1.0E-05 M
T3 construct: purchased Eurofins (SafetyScreen44)
T3 sequence (P06239 whole entry): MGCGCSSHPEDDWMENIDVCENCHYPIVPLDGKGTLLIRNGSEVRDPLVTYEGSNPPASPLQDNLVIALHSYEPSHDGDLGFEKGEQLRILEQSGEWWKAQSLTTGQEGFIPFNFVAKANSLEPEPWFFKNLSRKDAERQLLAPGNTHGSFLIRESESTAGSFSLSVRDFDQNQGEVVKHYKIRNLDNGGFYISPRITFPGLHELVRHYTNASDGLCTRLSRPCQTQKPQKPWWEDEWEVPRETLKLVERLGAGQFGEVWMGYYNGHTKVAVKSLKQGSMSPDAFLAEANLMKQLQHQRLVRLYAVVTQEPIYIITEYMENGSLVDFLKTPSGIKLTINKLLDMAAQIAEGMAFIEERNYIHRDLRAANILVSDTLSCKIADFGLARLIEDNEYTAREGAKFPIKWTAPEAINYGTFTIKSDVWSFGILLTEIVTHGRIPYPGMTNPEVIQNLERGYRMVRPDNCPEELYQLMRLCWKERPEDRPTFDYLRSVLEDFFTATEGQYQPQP
Experimental: as §1

[5] = biological target: T4, PDE3A (h) (Homo sapiens, UniProt Q14432); assay: SafetyScreen44; type: biochemical; conditions: enzymatic activity, 1.0E-05 M
T4 construct: purchased Eurofins (SafetyScreen44)
T4 sequence (Q14432 whole entry): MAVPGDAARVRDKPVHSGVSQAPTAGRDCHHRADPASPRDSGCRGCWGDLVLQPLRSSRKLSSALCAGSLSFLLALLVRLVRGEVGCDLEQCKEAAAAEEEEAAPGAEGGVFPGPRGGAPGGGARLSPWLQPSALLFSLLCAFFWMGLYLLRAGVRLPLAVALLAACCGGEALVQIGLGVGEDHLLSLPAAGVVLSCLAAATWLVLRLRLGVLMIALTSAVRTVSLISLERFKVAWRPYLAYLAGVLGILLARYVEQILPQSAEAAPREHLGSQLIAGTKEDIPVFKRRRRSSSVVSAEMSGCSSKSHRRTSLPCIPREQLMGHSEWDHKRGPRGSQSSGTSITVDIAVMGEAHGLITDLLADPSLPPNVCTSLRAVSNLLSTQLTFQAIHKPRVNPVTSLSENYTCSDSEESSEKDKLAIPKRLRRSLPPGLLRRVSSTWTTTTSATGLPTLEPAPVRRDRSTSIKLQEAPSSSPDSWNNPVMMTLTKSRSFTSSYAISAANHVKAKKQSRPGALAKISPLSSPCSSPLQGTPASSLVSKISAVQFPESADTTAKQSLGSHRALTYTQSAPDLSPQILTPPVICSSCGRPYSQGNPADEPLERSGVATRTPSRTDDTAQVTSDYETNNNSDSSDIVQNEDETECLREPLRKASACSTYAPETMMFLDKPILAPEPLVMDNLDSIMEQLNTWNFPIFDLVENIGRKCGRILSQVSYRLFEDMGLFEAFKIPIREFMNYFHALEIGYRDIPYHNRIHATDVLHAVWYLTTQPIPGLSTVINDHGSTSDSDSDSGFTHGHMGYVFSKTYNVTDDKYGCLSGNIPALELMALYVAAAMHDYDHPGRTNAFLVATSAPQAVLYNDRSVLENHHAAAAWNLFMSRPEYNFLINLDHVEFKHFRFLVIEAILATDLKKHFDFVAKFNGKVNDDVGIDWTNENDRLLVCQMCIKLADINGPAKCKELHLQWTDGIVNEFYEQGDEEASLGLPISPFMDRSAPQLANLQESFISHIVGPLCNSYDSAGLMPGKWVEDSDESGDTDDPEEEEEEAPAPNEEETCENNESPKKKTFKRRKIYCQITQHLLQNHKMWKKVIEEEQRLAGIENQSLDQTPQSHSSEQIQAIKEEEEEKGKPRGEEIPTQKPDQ
Experimental: as §1

[6] = biological target: T5, PDE4D2 (h) (Homo sapiens, UniProt Q08499); assay: SafetyScreen44; type: biochemical; conditions: enzymatic activity, 1.0E-05 M
T5 construct: purchased Eurofins (SafetyScreen44)
T5 sequence (Q08499 303-809): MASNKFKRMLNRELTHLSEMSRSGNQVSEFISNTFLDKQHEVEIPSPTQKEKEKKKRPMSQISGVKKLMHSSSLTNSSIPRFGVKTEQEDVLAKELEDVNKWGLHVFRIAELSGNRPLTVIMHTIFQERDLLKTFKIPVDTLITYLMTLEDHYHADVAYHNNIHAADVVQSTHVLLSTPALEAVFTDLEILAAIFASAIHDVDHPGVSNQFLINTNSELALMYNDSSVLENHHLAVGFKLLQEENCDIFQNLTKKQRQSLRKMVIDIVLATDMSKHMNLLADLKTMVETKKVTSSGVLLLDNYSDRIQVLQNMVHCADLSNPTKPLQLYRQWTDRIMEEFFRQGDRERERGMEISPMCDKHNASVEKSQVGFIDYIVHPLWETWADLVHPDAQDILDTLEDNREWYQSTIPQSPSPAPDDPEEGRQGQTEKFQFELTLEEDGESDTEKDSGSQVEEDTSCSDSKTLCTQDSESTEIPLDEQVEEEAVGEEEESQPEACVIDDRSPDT
Experimental: as §1

[7] = biological target: T6, acetylcholinesterase (h) (Homo sapiens, UniProt P22303); assay: SafetyScreen44; type: biochemical; conditions: enzymatic activity, 1.0E-05 M
T6 construct: purchased Eurofins (SafetyScreen44)
T6 sequence (P22303 32-614): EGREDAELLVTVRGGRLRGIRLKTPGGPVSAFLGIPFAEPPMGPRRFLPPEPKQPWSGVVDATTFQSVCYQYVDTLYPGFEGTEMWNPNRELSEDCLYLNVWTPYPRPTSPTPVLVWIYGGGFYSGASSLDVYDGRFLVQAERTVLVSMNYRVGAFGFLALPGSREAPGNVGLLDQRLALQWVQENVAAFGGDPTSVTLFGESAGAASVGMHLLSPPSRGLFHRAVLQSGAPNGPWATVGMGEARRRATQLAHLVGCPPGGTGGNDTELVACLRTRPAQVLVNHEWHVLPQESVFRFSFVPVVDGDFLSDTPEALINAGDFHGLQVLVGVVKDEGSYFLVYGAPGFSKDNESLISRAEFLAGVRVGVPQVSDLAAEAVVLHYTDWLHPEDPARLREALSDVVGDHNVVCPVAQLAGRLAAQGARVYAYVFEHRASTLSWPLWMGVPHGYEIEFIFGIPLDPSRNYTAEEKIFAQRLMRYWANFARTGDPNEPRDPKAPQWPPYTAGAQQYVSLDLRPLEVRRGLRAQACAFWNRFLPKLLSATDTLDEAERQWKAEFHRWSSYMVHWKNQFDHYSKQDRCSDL
Experimental: as §1

[8] = biological target: CYP1A (Homo sapiens, UniProt P05177); assay: CYP inhibition; conditions: human liver microsomes, probe phenacetin, HLM, phenacetin substrate
Sequence of CYP1A (P05177 whole entry): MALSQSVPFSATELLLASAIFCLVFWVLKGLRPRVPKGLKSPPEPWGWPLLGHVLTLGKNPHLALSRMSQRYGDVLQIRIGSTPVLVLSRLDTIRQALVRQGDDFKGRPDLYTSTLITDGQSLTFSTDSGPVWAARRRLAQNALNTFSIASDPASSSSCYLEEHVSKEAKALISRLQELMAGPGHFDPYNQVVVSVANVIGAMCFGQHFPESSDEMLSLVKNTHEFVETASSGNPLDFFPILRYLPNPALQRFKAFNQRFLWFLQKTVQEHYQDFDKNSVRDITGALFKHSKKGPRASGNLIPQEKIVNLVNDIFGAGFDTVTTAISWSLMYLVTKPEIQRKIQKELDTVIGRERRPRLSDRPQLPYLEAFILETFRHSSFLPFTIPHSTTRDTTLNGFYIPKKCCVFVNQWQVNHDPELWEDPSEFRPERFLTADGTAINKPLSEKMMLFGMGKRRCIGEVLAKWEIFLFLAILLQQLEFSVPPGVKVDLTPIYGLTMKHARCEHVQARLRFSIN
Experimental: (§2) Cytochrome P450 inhibition was assessed in vitro using human recombinant enzymes in microsomal preparations. […] Enzyme activity was quantified by monitoring formation of substrate-specific metabolites, and percent inhibition was calculated relative to vehicle control.

[9] = biological target: CYP2C8 (Homo sapiens, UniProt P10632); assay: CYP inhibition; conditions: human, human liver microsomes, probe amodiaquine, CYP2C8 inhibition, HLM, amodiaquine substrate
Sequence of CYP2C8 (P10632 whole entry): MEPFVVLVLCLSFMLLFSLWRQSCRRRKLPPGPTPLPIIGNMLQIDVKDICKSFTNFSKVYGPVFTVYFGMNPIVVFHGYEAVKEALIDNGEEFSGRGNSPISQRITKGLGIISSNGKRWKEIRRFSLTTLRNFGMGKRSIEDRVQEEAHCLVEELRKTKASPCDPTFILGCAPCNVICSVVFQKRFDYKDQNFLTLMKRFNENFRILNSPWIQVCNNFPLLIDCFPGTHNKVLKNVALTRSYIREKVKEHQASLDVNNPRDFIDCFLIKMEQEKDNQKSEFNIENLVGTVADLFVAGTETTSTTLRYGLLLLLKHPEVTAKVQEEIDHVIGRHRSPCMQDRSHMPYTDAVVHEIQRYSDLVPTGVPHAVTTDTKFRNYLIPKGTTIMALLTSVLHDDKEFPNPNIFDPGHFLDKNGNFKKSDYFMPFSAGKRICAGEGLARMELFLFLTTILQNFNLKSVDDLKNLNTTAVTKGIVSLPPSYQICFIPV
Experimental: as §2

[10] = test system: CYP3A; assay: CYP inhibition; conditions: HLM; for inhibition at 10 µM: human, human liver microsomes, CYP3A inhibition
Experimental: as §2

[11] = Maximum tolerated dose study; conditions: for B.W.: animals N 1-3;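 for all read-outs here: male ICR mice given oral doses under a stepwise escalation scheme to find the highest tolerated dose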
[12] = test system: MRSA ATCC 33591; assay: Neutropenic murine thigh infection model; conditions: oral 50 mg/kg TID at 2, 8, and 14 h postinfection; at 26 h
[13] = test system: NorA overexpressing strain NCTC 13616; assay: Reserpine growth (efflux inhibition) assay; conditions: for AUC of growth curve: biological replicates 1-3
Experimental: Statistical analyses were performed with GraphPad Prism V9.5.0. […] Unpaired t tests were used when comparing two samples in the gyrase assays.

[14] = test system: S. aureus SA-1199 WT and SA-1199B; assay: Accumulation assay; type: cell-based; conditions: SA-1199B compared to SA-1199
Experimental: Minor adjustments were made to the protocol previously described by Geddes and Hergenrother. After centrifugation in oil to remove excess compound, the pellets were dissolved in 200 μL of ultrapure sterile water and subjected to five freeze–thaw cycles. Each cycle consisted of 1 min in a dry ice and ethanol bath, followed by vortexing and 3 min in a heat block at 65 °C. Miles Misra viable counts were used to determine the number of colony-forming units (CFUs) for each replicate. These counts were performed for the 0.55 OD inoculum, postcompound incubation, solvent-only control, and lysates.
A 20 μL sample was injected into an Onyx monolithic C18 column and run using a gradient method. The mobile phase began with 10% acetonitrile and 90% water, with the acetonitrile content increased to 90% over 7 min, maintained for 2 min, and then returned to 10%. The area under the curve was automatically calculated using Agilent ChemStation software to determine the level of accumulation within the bacterial cells. Finally, the data were analyzed using GraphPad Prism 10.4.1. Unpaired t test was conducted to evaluate the statistical significance of the level of efflux in the efflux mutant S. aureus 1199B strain compared to the wild-type S. aureus 1199 strain.

## Cc1cc(C)nc(N[C@@H]2CCN(c3c(F)cc4c(=O)c(C(=O)O)cn5c4c3OC[C@@H]5C)C2)n1 [Compound 50, (S)-10-((R)-3-((4,6-Dimethylpyrimidin-2-yl)amino)pyrrolidin-1-yl)-9-fluoro-3-methyl-7-oxo-2,3-dihydro-7H-[1,4]oxazino[2,3,4-ij]quinoline-6-carboxylic acid]
[1]; 6175, read-out: MIC
  MIC: 0.06 µg/mL (≈ 0.132 µM)
[1]; 8017, read-out: MIC
  MIC: 0.25 µg/mL (≈ 0.551 µM)
[1]; 8181, read-out: MIC
  MIC: 0.06 µg/mL (≈ 0.132 µM)
[1]; 8183
  MIC: 0.125 µg/mL (≈ 0.276 µM)
[1]; 10069, read-out: MIC
  MIC: ≤ 0.03 µg/mL
[1]; 10182, read-out: MIC
  MIC: 0.06 µg/mL (≈ 0.132 µM)
[1]; 11080
  MIC: 0.125 µg/mL (≈ 0.276 µM)
[1]; 83190, read-out: MIC
  MIC: 0.06 µg/mL (≈ 0.132 µM)
[1]; 83740, read-out: MIC
  MIC: 0.06 µg/mL (≈ 0.132 µM)
[1]; 84115
  MIC: 0.125 µg/mL (≈ 0.276 µM)
[1]; ATCC12386, ATCC 12386
  MIC: 0.25 µg/mL (≈ 0.551 µM)
[1]; n = 10, read-out: modal MIC
  MIC: 0.06 µg/mL (≈ 0.132 µM)
[2]
  inhibition at 10 µM: 15%
[3]
  inhibition at 10 µM: 25.9%
[4]
  inhibition at 10 µM: 2.87%
[5]
  inhibition at 10 µM: 12.2%
[6]
  inhibition at 10 µM: 31.8%
[7]
  inhibition at 10 µM: 34.2%
[8]
  inhibition at 10 µM: 16%
[9]
  inhibition at 10 µM: 13.4%
[10]; midazolam substrate, 10 μM
  CYP3A inhibition: 10.5%
[10]; probe midazolam, midazolam substrate
  inhibition at 10 µM: 10.5%
[10]; probe testosterone, testosterone substrate
  inhibition at 10 µM: 6.32%
[11]; PO 100 mg/kg, 1 hr after 1st dosing
  Response (death/test): 0/3
[11]; PO 100 mg/kg, 1 hr after 2nd dosing
  Response (death/test): 0/3
[11]; PO 100 mg/kg, 1 hr after 3rd dosing
  Response (death/test): 0/3
[11]; PO 100 mg/kg, 2 hrs after 3rd dosing
  Response (death/test): 0/3
[11]; PO 100 mg/kg, 6 hrs after 1st dosing
  Response (death/test): 0/3
[11]; PO 100 mg/kg, 6 hrs after 2nd dosing
  Response (death/test): 0/3
[11]; PO 100 mg/kg, 24 hrs after 3rd dosing
  Response (death/test): 0/3
[11]; PO 100 mg/kg, 48 hrs after 3rd dosing
  Response (death/test): 0/3
[11]; PO 100 mg/kg, 72 hrs after 3rd dosing
  Response (death/test): 0/3
[11]; PO 100 mg/kg, 72 hrs after final dose, 100 mg/kg
  B.W.: 24 and 25
[11]; PO 100 mg/kg, Pre-dose, 100 mg/kg
  B.W.: 24 and 23
[11]; PO 200 mg/kg, 1 hr after 1st dosing
  Response (death/test): 0/3
[11]; PO 200 mg/kg, 1 hr after 2nd dosing
  Response (death/test): 0/3
[11]; PO 200 mg/kg, 1 hr after 3rd dosing
  Response (death/test): 0/3
[11]; PO 200 mg/kg, 2 hrs after 3rd dosing
  Response (death/test): 0/3
[11]; PO 200 mg/kg, 6 hrs after 1st dosing
  Response (death/test): 0/3
[11]; PO 200 mg/kg, 6 hrs after 2nd dosing
  Response (death/test): 0/3
[11]; PO 200 mg/kg, 24 hrs after 3rd dosing
  Response (death/test): 0/3
[11]; PO 200 mg/kg, 48 hrs after 3rd dosing
  Response (death/test): 0/3
[11]; PO 200 mg/kg, 72 hrs after 3rd dosing
  Response (death/test): 0/3
[11]; PO 200 mg/kg, 72 hrs after final dose, 200 mg/kg
  B.W.: 25 and 28
[11]; PO 200 mg/kg, Pre-dose, 200 mg/kg
  B.W.: 23 and 24
[11]; PO 400 mg/kg, 1 hr after 1st dosing
  Response (death/test): 0/3
[11]; PO 400 mg/kg, 1 hr after 2nd dosing
  Response (death/test): 0/3
[11]; PO 400 mg/kg, 1 hr after 3rd dosing
  Response (death/test): 0/3
[11]; PO 400 mg/kg, 2 hrs after 3rd dosing
  Response (death/test): 0/3
[11]; PO 400 mg/kg, 6 hrs after 1st dosing
  Response (death/test): 0/3
[11]; PO 400 mg/kg, 6 hrs after 2nd dosing
  Response (death/test): 0/3
[11]; PO 400 mg/kg, 24 hrs after 3rd dosing
  Response (death/test): 0/3
[11]; PO 400 mg/kg, 48 hrs after 3rd dosing
  Response (death/test): 0/3
[11]; PO 400 mg/kg, 72 hrs after 3rd dosing
  Response (death/test): 0/3
[11]; PO 400 mg/kg, 72 hrs after final dose, 400 mg/kg
  B.W.: 25 and 23
[11]; PO 400 mg/kg, Pre-dose, 400 mg/kg
  B.W.: 20 and 21
[12]
  bacterial counts in thigh: 4.6 log10 CFU/g
  reduction relative to the vehicle: 4.1 log10 CFU/g
[13]; 0.25 MIC + R (reserpine)
  AUC of growth curve: 2.985 and 3.342 and 3.404
[13]; 0.25 MIC
  AUC of growth curve: 3.519 and 4.693 and 4.851
[13]; 0.5 MIC + R (reserpine)
  AUC of growth curve: 1.548 and 1.586 and 2.254
[13]; 0.5 MIC
  AUC of growth curve: 2.203 and 2.425 and 1.859
[13]; 0.5x MIC with vs without reserpine
  efflux liability in reserpine assay: minimal shift

## C[C@H]1COc2c(N3CCN(C)CC3)c(F)cc3c(=O)c(C(=O)O)cn1c23 [Levofloxacin, (S)-9-Fluoro-3-methyl-10-(4-methylpiperazin-1-yl)-7-oxo-2,3-dihydro-7H-[1,4]oxazino[2,3,4-ij]quinoline-6-carboxylic acid, reference compound]
[14]
  level of accumulation: lower in the NorA-overexpressing SA-1199B strain
[12]
  bacterial counts in thigh: 4.51 log10 CFU/g
